The text below walks through data of US20120115893A1, “Substituted Bicyclic Carboxamide and Urea Compounds as Vanilloid Receptor Ligands” (Gruenenthal GmbH, priority 2010, published 2012).

Test [1] deals with T1, vanilloid receptor 1 (VR1/TRPV1 receptor) (Homo sapiens, UniProt Q8NER1).
T1 construct: expressed in transfected cells; host or cells: CHO K1 cells (ECACC), stably transfected
Description: Functional VR1 assay, heat stimulus 45° C. The class given is cell-based, human being. The note with it: human VR1, heat stimulus 45° C. The source says:
(§1) The agonistic or antagonistic effect of the substances to be tested on the vanilloid receptor 1 (VR1) can also be determined using the following assay. In this assay, the influx of Ca^2+ through the channel is quantified with the aid of a Ca^2+-sensitive dye (type Fluo-4, Molecular Probes Europe BV, Leiden, the Netherlands) in a fluorescent imaging plate reader (FLIPR, Molecular Devices, Sunnyvale, USA).
Chinese hamster ovary cells (CHO K1 cells, European Collection of Cell Cultures (ECACC) United Kingdom) are stably transfected with the VR1 gene. For functional testing, these cells are plated out on poly-D-lysine-coated black 96-well plates having a clear base (BD Biosciences, Heidelberg, Germany) at a density of 25,000 cells/well. The cells are incubated overnight at 37° C. and 5% CO2 in a culture medium (Ham's F12 nutrient mixture, 10% by volume of FCS (foetal calf serum), 18 μg/ml of L-proline). The next day the cells are incubated with Fluo-4 (Fluo-4 2 μM, 0.01% by volume of Pluronic F127, Molecular Probes in HBSS (Hank's buffered saline solution), Gibco Invitrogen GmbH, Karlsruhe, Germany) for 30 minutes at 37° C. […] The Ca^2+-dependent fluorescence is measured before and after the addition of the substances to be tested (λex wavelength=488 nm, λem=540 nm). Quantification is carried out by measuring the highest fluorescence intensity (FC, fluorescence counts) over time.

The target in test [2] is T1, vanilloid receptor 1 (VR1/TRPV1 receptor). Description: FLIPR Ca2+ influx assay, capsaicin stimulus, CHO K1 cells transfected with human VR1 gene. In kind it is cell-based, human being. Particulars: for Ki / (f) Ki (human being) [nM] Cap: functional, NE=no effect; for Ki: read-out: (f) Ki (human being) [nM] Cap; for inhibition at 5 µM: CHO-K1, @ 5 μM, read-out: inhibition (as a percentage), (f) Ki (human being) Cap column. As for the experimental part:
Furthermore, preference may be given to compounds according to the invention of general formula (I) that cause a 50 percent displacement of capsaicin, which is present at a concentration of 100 nM, in a FLIPR assay with CHO K1 cells which were transfected with the human VR1 gene at a concentration of less than 2,000 nM, preferably less than 1,000 nM, particularly preferably less than 300 nM, most particularly preferably less than 100 nM, even more preferably less than 75 nM, additionally preferably less than 50 nM, most preferably less than 10 nM.
In the process, the Ca^2+ influx is quantified in the FLIPR assay with the aid of a Ca^2+-sensitive dye (type Fluo-4, Molecular Probes Europe BV, Leiden, the Netherlands) in a fluorescent imaging plate reader (FLIPR, Molecular Devices, Sunnyvale, USA), as described hereinafter.
as §1
Chinese hamster ovary cells (CHO K1 cells, European Collection of Cell Cultures (ECACC) United Kingdom) are stably transfected with the VR1 gene. For functional testing, these cells are plated out on poly-D-lysine-coated black 96-well plates having a clear base (BD Biosciences, Heidelberg, Germany) at a density of 25,000 cells/well. The cells are incubated overnight at 37° C. and 5% CO2 in a culture medium (Ham's F12 nutrient mixture, 10% by volume of FCS (foetal calf serum), 18 μg/ml of L-proline). The next day the cells are incubated with Fluo-4 (Fluo-4 2 μM, 0.01% by volume of Pluronic F127, Molecular Probes in HBSS (Hank's buffered saline solution), Gibco Invitrogen GmbH, Karlsruhe, Germany) for 30 minutes at 37° C. Subsequently, the plates are washed three times with HBSS buffer and after further incubation for 15 minutes at RT used for Ca^2+ measurement in a FLIPR assay. The Ca^2+-dependent fluorescence is measured before and after the addition of the substances to be tested (λex wavelength=488 nm, λem=540 nm). Quantification is carried out by measuring the highest fluorescence intensity (FC, fluorescence counts) over time.
The FLIPR protocol consists of 2 substance additions. First the compounds to be tested (10 μM) are pipetted onto the cells and the Ca^2+ influx is compared with the control (capsaicin 10 μM) (% activation based on the Ca^2+ signal after the addition of 10 μM of capsaicin). After 5 minutes' incubation, 100 nM of capsaicin are applied and the Ca^2+ influx is also determined.
Desensitising agonists and antagonists led to suppression of the Ca^2+ influx. The % inhibition is calculated compared to the maximum achievable inhibition with 10 μM of capsaicin.
Starting from the percentage displacement caused by different concentrations of the compounds to be tested of general formula I, IC50 inhibitory concentrations which cause a 50-percent displacement of capsaicin were calculated. K, values for the test substances were obtained by conversion by means of the Cheng-Prusoff equation (Cheng, Prusoff; Biochem. Pharmacol. 22, 3099-3108, 1973).

Test [3] deals with T2, vanilloid receptor 1 (VR1/TRPV1 receptor) (Mus musculus, UniProt Q704Y3).
T2 construct: expressed in transfected cells; host or cells: CHO K1 cells stably transfected (inferred from method II)
The test is described as follows: FLIPR Ca2+ influx assay, capsaicin stimulus, mouse VR1. Particulars: functional, read-out: (f) Ki (mouse) [nM] Cap. In kind it is cell-based.
From the text: as §1
Chinese hamster ovary cells (CHO K1 cells, European Collection of Cell Cultures (ECACC) United Kingdom) are stably transfected with the VR1 gene. For functional testing, these cells are plated out on poly-D-lysine-coated black 96-well plates having a clear base (BD Biosciences, Heidelberg, Germany) at a density of 25,000 cells/well. […] The Ca^2+-dependent fluorescence is measured before and after the addition of the substances to be tested (λex wavelength=488 nm, λem=540 nm). Quantification is carried out by measuring the highest fluorescence intensity (FC, fluorescence counts) over time.
The FLIPR protocol consists of 2 substance additions. […] After 5 minutes' incubation, 100 nM of capsaicin are applied and the Ca^2+ influx is also determined. […]
Starting from the percentage displacement caused by different concentrations of the compounds to be tested of general formula I, IC50 inhibitory concentrations which cause a 50-percent displacement of capsaicin were calculated. […]

T1 sequence (Q8NER1 whole entry): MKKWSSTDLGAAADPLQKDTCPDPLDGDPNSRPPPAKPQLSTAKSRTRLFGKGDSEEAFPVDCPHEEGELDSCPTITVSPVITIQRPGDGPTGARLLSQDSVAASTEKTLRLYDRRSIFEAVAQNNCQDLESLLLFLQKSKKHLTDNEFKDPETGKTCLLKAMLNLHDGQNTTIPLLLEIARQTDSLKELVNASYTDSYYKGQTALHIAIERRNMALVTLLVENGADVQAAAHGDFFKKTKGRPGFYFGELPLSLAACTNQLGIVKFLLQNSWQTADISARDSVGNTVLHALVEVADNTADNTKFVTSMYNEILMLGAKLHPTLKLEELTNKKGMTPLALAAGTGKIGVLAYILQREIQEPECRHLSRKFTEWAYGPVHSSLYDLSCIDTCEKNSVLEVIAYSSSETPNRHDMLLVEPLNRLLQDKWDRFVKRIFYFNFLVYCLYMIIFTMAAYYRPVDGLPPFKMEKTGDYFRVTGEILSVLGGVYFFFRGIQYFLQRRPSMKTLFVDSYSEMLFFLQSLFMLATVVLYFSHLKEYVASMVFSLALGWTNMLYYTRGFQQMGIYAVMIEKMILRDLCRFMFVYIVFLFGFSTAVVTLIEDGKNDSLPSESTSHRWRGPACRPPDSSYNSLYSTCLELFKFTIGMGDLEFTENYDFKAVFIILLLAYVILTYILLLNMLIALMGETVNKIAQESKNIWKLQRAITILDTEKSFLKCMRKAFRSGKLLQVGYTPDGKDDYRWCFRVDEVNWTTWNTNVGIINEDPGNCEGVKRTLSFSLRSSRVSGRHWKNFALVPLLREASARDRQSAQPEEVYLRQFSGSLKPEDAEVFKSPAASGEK
T2 sequence (Q704Y3 whole entry): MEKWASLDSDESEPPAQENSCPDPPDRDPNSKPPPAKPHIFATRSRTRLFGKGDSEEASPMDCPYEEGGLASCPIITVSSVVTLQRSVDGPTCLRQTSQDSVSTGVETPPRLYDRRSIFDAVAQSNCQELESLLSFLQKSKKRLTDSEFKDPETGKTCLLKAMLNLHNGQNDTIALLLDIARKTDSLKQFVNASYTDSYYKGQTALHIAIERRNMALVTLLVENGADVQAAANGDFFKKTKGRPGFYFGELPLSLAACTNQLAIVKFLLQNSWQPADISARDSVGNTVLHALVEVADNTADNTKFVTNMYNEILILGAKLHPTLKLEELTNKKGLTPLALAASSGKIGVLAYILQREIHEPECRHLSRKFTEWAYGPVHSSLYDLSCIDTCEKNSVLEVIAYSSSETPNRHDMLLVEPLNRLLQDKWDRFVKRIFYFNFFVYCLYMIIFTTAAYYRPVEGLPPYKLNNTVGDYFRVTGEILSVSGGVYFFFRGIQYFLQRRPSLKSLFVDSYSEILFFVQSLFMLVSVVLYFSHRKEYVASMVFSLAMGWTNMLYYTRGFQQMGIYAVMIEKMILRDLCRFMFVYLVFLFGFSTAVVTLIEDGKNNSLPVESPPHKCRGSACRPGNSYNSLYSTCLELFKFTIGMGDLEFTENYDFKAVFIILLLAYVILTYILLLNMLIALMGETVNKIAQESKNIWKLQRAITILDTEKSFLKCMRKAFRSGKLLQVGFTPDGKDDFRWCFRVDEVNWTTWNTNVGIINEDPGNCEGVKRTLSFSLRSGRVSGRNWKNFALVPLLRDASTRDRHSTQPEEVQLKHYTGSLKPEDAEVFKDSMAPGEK

Consider `CC(C(=O)NCc1cc(C(F)(F)F)nn1-c1cccc(Cl)c1)C1CCCc2ccc(O)cc21` (stereo not drawn) [Example 12, N-((1-(3-chlorophenyl)-3-(trifluoromethyl)-1H-pyrazol-5-yl)methyl)-2-(7-hydroxy-1,2,3,4-tetrahydronaphthalen-1-yl)propanamide], for which, in test [1] (@ 2.5 μM, read-out: inhibition (as a percentage), IC50 (human being) 45° C. column), the inhibition (usually the percentage by which the read-out fell short of the control) at 2.5 µM came to 30%. For the same compound, in test [2], the Ki (in general, the equilibrium dissociation constant of an inhibitor or competing ligand from its target) is 49.2 nM.
As to `CC(C)(C)c1ccc2c(c1)CC[C@H]2NC(=O)NCc1cc(C(F)(F)F)nn1-c1cccc(Cl)c1` [Example 2, (R)-1-(5-tert-butyl-2,3-dihydro-1H-inden-1-yl)-3-((1-(3-chlorophenyl)-3-(trifluoromethyl)-1H-pyrazol-5-yl)methyl)urea], the inhibition at 5 µM in test [2] came to 33%.
Turning to `CC(C)(C)c1ccc2c(c1)CC[C@@H]2NC(=O)NCc1cc(C(F)(F)F)nn1-c1cccc(Cl)c1` [Example 3, (S)-1-(5-tert-butyl-2,3-dihydro-1H-inden-1-yl)-3-((1-(3-chlorophenyl)-3-(trifluoromethyl)-1H-pyrazol-5-yl)methyl)urea], the “(f) Ki (human being) [nM] Cap” value in test [2] was “Ne”.
For “N-((1-(3-chlorophenyl)-3-(trifluoromethyl)-1H-pyrazol-5-yl)methyl)-2-(7-hydroxy-1,2,3,4-tetrahydronaphthalen-1-yl)propanamide [Example 10]”, the entries for the “inhibition (as a percentage), (f) Ki (human being) Cap column” value in test [2] (@ 1 μM) and in test [2] (@ 5 μM) were 14% @ 1 μM and 34% @ 5 μM, respectively.
Regarding `O=C(NCc1cc(C(F)(F)F)nn1-c1cccc(Cl)c1)NC1CCCc2ccc(O)cc21` (stereo not drawn) [Example 13, 1-((1-(3-chlorophenyl)-3-(trifluoromethyl)-1H-pyrazol-5-yl)methyl)-3-(7-hydroxy-1,2,3,4-tetrahydronaphthalen-1-yl)urea], in test [1] (read-out: IC50 (human being) [nM], 45° C.), the IC50 (commonly the concentration that inhibits the measured activity by half) was 1860 nM. Further, the Ki in test [2] stood at 16.1 nM.
For `Cn1ncc2c1CCCC2NC(=O)NCc1cc(C(F)(F)F)nn1-c1cccc(Cl)c1` (stereo not drawn) [Example 7, 1-((1-(3-chlorophenyl)-3-(trifluoromethyl)-1H-pyrazol-5-yl)methyl)-3-(1-methyl-4,5,6,7-tetrahydro-1H-indazol-4-yl)urea], the “(f) Ki (human being) [nM] Cap” value in test [2] is “Ne”.
For `CC(C)(C)c1cc(CNC(=O)NC2CCCc3cnccc32)n(-c2cccc(Cl)c2)n1` (stereo not drawn) [Example 20, 1-((3-tert-butyl-1-(3-chlorophenyl)-1H-pyrazol-5-yl)methyl)-3-(5,6,7,8-tetrahydroisoquinolin-5-yl)urea], the Ki in test [2] worked out at 73.6 nM.
As to `CC(C)(C)c1cc(CNC(=O)NC2CCCc3ccc(O)cc32)n(-c2cccc(Cl)c2)n1` (stereo not drawn) [Example 14, 1-((3-tert-butyl-1-(3-chlorophenyl)-1H-pyrazol-5-yl)methyl)-3-(7-hydroxy-1,2,3,4-tetrahydronaphthalen-1-yl)urea], the inhibitory constant (Ki) in test [3] amounted to 132 nM; in test [2], 7.7 nM.
Turning to `O=C(NCc1cc(C(F)(F)F)nn1-c1cccc(Cl)c1)NC1CCCc2cnccc21` (stereo not drawn) [Example 19, 1-((1-(3-chlorophenyl)-3-(trifluoromethyl)-1H-pyrazol-5-yl)methyl)-3-(5,6,7,8-tetrahydroisoquinolin-5-yl)urea], in test [2], the inhibition at 5 µM turned out to be 38%.
`CC(C(=O)NCc1cc(C(F)(F)F)nn1-c1ccc(F)c(Cl)c1)C1CCCc2ccc(O)cc21` (stereo not drawn) [Example 15, N-((1-(3-chloro-4-fluorophenyl)-3-(trifluoromethyl)-1H-pyrazol-5-yl)methyl)-2-(7-hydroxy-1,2,3,4-tetrahydronaphthalen-1-yl)propanamide]: the inhibitory constant (Ki) in test [2] was found to be 29.5 nM.
Regarding `CC(C)(C)c1ccc2c(c1)C[C@H](NC(=O)NCc1cc(C(C)(C)C)nn1-c1cccc(Cl)c1)C2` [Example 4, (R)-1-((3-tert-butyl-1-(3-chlorophenyl)-1H-pyrazol-5-yl)methyl)-3-(5-tert-butyl-2,3-dihydro-1H-inden-2-yl)ure], the “(f) Ki (human being) [nM] Cap” value in test [2] is given as “Ne”.
